Reference: ChEMBL document CHEMBL5465560, “Selectivity Literature for EUbOPEN Chemogenomic Library” (2024)

How the values were obtained:
[1] = molecular target: Serine/threonine-protein kinase PLK1 (Homo sapiens, UniProt P53350); assay: Selectivity interaction (Kinase panel (Invitrogen)) EUB0000639a PLK1; settings: at 200 nM
[2] = molecular target: Tyrosine-protein kinase SYK (Homo sapiens, UniProt P43405); settings: at 10 µM
[3] = molecular target: Serine/threonine-protein kinase MARK1 (Homo sapiens) (UniProt Q9P0L2); assay: Selectivity interaction (KinomeScan (DiscoverX)) EUB0001079a MARK1; settings: at 1 µM
Serine/threonine-protein kinase MARK1 (Homo sapiens), sequence (Q9P0L2 whole entry, looked up): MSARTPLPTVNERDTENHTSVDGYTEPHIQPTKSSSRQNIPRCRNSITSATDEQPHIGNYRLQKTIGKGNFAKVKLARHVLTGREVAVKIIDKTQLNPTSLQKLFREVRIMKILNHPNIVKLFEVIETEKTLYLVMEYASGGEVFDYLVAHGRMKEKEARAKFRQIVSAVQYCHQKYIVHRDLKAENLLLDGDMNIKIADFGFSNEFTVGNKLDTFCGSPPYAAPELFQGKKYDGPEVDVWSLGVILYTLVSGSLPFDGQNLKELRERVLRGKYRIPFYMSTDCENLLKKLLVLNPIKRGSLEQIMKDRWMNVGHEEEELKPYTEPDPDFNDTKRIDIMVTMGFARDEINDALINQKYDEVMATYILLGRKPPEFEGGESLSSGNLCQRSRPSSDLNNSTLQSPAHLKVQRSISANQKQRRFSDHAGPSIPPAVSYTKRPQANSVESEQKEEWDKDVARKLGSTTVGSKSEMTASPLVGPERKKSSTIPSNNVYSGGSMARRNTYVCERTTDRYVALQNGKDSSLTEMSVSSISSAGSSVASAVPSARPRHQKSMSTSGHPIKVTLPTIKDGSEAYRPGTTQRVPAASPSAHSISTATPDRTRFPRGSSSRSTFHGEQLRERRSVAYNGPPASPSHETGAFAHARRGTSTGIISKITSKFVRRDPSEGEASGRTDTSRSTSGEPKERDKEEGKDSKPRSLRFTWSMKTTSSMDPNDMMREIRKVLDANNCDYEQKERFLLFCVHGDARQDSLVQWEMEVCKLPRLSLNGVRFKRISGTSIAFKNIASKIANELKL

[4] = molecular target: T1, Serine/threonine-protein kinase TAO1 (Homo sapiens) (UniProt Q7L7X3); assay: Selectivity interaction (KinomeScan (DiscoverX)) EUB0001079a TAOK1; settings: at 1 µM
T1 sequence (whole entry): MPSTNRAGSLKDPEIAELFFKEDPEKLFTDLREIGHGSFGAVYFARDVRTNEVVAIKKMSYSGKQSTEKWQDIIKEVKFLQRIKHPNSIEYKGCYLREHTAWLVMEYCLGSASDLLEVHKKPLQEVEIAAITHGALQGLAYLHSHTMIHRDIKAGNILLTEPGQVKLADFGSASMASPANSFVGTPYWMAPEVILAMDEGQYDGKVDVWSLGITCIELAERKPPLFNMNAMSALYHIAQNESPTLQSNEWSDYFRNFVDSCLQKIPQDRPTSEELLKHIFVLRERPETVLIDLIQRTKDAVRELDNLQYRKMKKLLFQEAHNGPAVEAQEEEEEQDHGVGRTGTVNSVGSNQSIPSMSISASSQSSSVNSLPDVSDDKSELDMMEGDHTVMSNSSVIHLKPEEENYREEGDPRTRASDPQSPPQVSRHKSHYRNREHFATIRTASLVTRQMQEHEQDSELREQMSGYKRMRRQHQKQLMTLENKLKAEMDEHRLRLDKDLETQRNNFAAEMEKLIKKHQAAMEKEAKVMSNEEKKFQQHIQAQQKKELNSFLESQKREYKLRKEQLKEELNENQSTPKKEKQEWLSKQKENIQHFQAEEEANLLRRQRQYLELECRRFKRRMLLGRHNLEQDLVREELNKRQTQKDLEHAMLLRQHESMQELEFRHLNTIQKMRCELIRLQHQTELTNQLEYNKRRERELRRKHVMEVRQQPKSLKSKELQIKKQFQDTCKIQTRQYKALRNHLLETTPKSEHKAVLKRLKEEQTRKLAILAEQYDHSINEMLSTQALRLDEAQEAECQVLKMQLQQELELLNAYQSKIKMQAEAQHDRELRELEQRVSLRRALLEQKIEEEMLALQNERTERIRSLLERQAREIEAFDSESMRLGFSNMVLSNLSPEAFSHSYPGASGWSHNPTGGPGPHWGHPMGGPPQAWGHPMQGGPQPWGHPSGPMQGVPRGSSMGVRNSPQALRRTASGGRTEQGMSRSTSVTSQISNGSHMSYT

[5] = molecular target: Ribosomal protein S6 kinase alpha-3 (Homo sapiens, UniProt P51812); assay: Selectivity interaction (KinomeScan (DiscoverX)) EUB0001079a RPS6KA3; settings: at 1 µM
[6] = molecular target: Proto-oncogene tyrosine-protein kinase receptor Ret (Homo sapiens, UniProt P07949); assay: (§1) Selectivity interaction (KinomeScan (DiscoverX)) EUB0001619a RET; settings: at 1 µM
Proto-oncogene tyrosine-protein kinase receptor Ret, sequence (P07949 whole entry): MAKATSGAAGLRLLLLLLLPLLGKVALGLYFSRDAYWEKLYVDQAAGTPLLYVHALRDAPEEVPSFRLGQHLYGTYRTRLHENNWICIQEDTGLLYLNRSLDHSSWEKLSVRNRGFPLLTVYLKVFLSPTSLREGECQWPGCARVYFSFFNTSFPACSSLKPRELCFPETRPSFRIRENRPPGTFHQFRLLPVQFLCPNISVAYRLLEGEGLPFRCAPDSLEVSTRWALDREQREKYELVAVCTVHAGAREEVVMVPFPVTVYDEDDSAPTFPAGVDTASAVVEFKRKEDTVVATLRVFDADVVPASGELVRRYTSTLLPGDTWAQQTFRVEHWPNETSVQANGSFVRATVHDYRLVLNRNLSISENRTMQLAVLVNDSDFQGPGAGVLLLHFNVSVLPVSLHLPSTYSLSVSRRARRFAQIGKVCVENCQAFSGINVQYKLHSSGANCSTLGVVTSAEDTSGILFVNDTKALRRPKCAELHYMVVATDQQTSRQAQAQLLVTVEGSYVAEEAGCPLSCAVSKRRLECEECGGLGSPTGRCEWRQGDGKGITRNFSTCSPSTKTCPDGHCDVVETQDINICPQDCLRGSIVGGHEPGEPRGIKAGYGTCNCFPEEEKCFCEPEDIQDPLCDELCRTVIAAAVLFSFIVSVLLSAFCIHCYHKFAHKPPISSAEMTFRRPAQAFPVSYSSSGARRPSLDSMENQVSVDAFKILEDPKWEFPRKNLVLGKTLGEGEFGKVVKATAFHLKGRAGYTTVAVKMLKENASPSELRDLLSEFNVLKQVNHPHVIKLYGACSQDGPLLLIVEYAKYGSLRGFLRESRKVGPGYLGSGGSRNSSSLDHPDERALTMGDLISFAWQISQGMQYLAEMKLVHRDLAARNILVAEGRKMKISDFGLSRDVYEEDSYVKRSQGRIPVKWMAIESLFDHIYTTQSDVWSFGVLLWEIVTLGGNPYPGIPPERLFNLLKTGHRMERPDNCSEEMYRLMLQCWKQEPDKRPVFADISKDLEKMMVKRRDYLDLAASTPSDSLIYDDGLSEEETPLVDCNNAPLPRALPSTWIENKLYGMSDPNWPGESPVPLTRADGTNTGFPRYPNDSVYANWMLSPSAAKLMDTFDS

[7] = test system: Proto-oncogene tyrosine-protein kinase receptor Ret (Homo sapiens), P07949 [M918T]; assay: as §1; settings: at 1 µM
[8] = test system: Proto-oncogene tyrosine-protein kinase receptor Ret (Homo sapiens), P07949 [V804L]; assay: as §1; settings: at 1 µM
[9] = test system: Proto-oncogene tyrosine-protein kinase receptor Ret (Homo sapiens), P07949 [V804M]; assay: as §1; settings: at 1 µM
Proto-oncogene tyrosine-protein kinase receptor Ret (Homo sapiens), P07949 [V804M], sequence (P07949 whole entry V804M): as the sequence (P07949 whole entry) above, with V804M counted along it

[10] = molecular target: T2, Dual specificity tyrosine-phosphorylation-regulated kinase 2 (Homo sapiens) (UniProt Q92630); assay: Selectivity interaction (KinomeScan (DiscoverX)) EUB0000618a DYRK2; settings: at 10 µM
T2 sequence (whole entry): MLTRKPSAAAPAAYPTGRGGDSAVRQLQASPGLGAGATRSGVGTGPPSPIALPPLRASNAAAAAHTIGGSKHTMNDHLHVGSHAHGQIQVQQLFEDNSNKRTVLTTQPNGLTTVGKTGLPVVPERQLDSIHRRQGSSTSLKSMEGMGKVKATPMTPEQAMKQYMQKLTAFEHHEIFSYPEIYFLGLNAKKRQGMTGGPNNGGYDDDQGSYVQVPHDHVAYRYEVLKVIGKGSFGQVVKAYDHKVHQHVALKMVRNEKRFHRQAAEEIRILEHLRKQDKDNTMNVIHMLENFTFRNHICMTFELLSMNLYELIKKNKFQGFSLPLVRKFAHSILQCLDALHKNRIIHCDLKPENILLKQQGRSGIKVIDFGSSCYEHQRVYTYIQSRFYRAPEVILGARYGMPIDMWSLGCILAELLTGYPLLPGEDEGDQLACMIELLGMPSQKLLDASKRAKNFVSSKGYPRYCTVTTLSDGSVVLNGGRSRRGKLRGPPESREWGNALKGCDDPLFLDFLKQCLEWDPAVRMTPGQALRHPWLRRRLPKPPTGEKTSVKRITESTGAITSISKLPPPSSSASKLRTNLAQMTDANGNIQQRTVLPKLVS

[11] = molecular target: T3, Beta-adrenergic receptor kinase 1 (Homo sapiens) (UniProt P25098); assay: Selectivity interaction (SelectScreen profiling (Invitrogen)) EUB0000607a ADRBK1; settings: at 2 µM
T3 sequence (whole entry): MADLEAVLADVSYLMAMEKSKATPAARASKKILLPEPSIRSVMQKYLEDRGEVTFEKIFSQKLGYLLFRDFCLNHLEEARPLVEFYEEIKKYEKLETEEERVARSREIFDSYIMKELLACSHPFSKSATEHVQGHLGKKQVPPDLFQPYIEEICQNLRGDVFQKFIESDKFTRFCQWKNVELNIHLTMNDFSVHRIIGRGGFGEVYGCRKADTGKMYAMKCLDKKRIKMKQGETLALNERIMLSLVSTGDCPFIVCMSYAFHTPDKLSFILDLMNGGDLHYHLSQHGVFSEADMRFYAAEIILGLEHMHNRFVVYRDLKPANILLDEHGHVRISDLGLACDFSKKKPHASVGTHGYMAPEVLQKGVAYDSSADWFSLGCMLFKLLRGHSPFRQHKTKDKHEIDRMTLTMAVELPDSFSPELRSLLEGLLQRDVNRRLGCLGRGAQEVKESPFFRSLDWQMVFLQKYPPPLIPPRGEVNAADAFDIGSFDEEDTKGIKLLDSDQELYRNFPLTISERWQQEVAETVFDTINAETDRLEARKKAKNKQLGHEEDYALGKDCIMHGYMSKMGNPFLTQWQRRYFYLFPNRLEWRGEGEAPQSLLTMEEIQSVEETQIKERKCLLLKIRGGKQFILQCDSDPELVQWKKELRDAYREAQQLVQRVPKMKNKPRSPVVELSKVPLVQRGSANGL

[12] = molecular target: Non-receptor tyrosine-protein kinase TYK2 (Homo sapiens, UniProt P29597); assay: Selectivity interaction (KinomeScan (DiscoverX)) EUB0000666a TYK2; settings: at 10 µM
Non-receptor tyrosine-protein kinase TYK2, sequence (P29597 whole entry): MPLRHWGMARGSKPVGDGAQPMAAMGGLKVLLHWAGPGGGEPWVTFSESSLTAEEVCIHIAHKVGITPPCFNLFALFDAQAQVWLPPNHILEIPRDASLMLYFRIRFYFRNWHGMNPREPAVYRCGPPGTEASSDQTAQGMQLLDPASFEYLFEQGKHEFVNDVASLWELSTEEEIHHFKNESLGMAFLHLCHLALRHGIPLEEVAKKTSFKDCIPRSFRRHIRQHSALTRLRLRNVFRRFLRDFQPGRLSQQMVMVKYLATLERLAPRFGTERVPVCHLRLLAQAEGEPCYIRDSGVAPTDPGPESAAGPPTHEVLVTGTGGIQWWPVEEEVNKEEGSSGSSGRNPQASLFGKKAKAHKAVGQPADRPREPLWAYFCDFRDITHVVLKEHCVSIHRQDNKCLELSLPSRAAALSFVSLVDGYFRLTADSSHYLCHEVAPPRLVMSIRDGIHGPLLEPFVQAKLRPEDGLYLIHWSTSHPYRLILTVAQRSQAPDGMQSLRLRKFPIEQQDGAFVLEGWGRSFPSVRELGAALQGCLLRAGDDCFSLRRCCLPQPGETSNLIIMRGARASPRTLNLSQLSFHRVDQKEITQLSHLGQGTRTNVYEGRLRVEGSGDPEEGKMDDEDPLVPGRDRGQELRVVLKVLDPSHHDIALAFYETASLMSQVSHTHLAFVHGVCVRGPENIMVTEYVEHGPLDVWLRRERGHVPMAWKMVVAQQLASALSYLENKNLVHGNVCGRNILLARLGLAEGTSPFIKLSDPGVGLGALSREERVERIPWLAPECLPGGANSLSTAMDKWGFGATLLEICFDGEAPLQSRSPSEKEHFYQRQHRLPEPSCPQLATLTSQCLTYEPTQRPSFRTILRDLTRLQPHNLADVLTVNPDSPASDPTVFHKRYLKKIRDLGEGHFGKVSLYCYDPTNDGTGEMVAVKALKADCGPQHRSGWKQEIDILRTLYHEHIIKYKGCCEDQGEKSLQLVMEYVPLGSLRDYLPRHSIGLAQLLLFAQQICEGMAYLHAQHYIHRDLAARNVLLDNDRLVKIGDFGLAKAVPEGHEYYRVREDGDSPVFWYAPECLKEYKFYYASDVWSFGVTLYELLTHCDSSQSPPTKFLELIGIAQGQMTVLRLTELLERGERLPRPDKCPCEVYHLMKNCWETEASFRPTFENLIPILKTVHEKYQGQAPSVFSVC

[13] = molecular target: Calcium/calmodulin-dependent protein kinase type II subunit delta (Homo sapiens) (UniProt Q13557); assay: Selectivity interaction (KinomeScan (DiscoverX)) EUB0000666a CAMK2D; settings: at 10 µM
Calcium/calmodulin-dependent protein kinase type II subunit delta (Homo sapiens), sequence (Q13557 whole entry): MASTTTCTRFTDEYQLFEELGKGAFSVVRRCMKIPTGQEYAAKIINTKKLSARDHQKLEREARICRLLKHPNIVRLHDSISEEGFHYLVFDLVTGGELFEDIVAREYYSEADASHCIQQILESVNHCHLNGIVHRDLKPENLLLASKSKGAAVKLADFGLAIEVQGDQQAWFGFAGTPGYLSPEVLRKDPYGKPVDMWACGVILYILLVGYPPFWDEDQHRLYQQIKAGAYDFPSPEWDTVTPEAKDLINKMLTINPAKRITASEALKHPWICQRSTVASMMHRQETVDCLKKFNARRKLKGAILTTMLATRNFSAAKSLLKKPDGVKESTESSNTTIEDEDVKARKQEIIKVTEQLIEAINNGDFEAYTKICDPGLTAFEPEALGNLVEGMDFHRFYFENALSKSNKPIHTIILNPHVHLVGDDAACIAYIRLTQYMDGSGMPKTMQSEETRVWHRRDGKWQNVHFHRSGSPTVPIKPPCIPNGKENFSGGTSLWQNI

**Q.** With CC[C@@H]1[C@H](F)C(=O)N[C@@H]1COc1nccc2cc(C(N)=O)c(OC)cc12 [ZIMLOVISERTIB] as the compound, how does the % of inhibition [1] read?
**A.** 4.41%

**Q.** With CCN(CC)CCCCNc1ncc2cc(-c3cc(OC)cc(OC)c3)c(NC(=O)NC(C)(C)C)nc2n1 as the compound, how does the % of control [2] read?
**A.** 100%

**Q.** For Nc1cnc(N2CCc3cc(S(=O)(=O)Nc4c(F)cc(Cl)cc4F)cc(N4CCCC4=O)c32)nc1 [TP-020n], which % of control [3] is on record?
**A.** 76%

**Q.** And the % of control [4]?
**A.** 80%

**Q.** And the % of control [5]?
**A.** 100%

**Q.** N#Cc1cccc(-c2c[nH]c3ncnc(N4CCOCC4)c23)c1 was tested. Which % of control [6] did it give?
**A.** 78%

**Q.** And the % of control [7]?
**A.** 70%

**Q.** And the % of control [8]?
**A.** 95%

**Q.** And the % of control [9]?
**A.** 58%

**Q.** For O[C@H]1CC[C@H](Nc2ncc3nc(Nc4c(F)cc(F)cc4F)n([C@H]4CCOC4)c3n2)CC1, which % of control [10] is on record?
**A.** 100%

**Q.** For CNC(=O)Nc1ccc(-c2nc(N3CC4CCC(C3)O4)c3cnn(C4CCC5(CC4)OCCO5)c3n2)cc1, which % of inhibition [11] is on record?
**A.** -1%

**Q.** What does the source list for O=C(NOC[C@H](O)CO)c1ccc(F)c(F)c1Nc1ccc(I)cc1F?
**A.** % of control [12]: 100%; % of control [13]: 100%
